The assay concerns the target T1, Nox4 (Homo sapiens, UniProt Q9NPH5).
T1 construct: expressed in transfected cells
T1 sequence (Q9NPH5 1-578): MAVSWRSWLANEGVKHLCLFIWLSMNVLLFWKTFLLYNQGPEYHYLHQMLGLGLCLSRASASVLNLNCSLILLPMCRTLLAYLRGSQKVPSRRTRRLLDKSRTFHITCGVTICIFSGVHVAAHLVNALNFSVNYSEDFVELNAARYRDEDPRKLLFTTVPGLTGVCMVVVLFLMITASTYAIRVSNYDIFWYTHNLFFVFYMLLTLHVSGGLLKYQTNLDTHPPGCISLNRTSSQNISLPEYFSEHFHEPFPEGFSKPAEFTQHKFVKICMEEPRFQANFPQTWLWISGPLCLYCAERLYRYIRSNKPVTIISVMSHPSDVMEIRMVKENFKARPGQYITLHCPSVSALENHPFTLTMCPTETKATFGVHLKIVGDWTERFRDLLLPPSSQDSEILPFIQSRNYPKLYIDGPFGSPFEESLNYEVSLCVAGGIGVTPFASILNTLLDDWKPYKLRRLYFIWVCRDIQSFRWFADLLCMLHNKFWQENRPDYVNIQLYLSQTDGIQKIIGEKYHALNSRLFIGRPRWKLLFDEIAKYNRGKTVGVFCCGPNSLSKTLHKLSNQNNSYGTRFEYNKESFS
T1 sequence (P13498 1-195 partner): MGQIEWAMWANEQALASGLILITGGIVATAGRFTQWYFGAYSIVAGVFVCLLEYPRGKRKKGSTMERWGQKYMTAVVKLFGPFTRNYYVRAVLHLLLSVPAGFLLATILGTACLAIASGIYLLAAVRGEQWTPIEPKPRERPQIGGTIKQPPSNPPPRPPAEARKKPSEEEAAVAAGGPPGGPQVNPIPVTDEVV
Description: Inhibition of Nox4-dependent H2O2 production in HEK/Nox4 cells, Amplex Red assay. It is filed as cell-based. The following applies: for remaining activity at 1 µM: 1 μM final concentration; for remaining activity at 1 µM / remaining activity at 5 µM / remaining activity at 10 µM: 1 h, HEK/Nox4 cells, DMSO vehicle = 1.000, n = 3-10, read-out: H2O2 production relative to vehicle control, Mean; for remaining activity at 5 µM: 5 μM final concentration; for remaining activity at 10 µM: 10 μM final concentration. On the procedure:
A high-throughput screening (HTS) assay was established for Nox4 inhibition, utilizing HEK293 cells that stably over-express Nox4 (HEK/Nox4 cells), which generate high levels of H2O2(Cheng G et al, Gene: 2001, p. 131-140). Over 30,000 compounds have been screened and medicinal chemistry efforts have led to the synthesis of numerous analogs and the identification of a chemically distinct series of selective Nox4 inhibitors. […] IC-50 was evaluated for UANox048 (FIG. 1B).
HEK cells stably transfected to overexpress Nox4 were treated with varying concentrations of test compounds, DPI (all-Nox inhibitor positive control), or DMSO (vehicle control) and incubated for 1 h (FIG. 1). (FIG. 1A) H2O2 presence was evaluated by Amplex Red assay. […] Values represent means±SEM; n=4. P values were calculated by student's two-tailed t test. *p<0.05, **p<0.01, *** p<0.001.

This note sets out measurements from US10654802B2, “Indoline derivatives and method for using and producing the same” (ARIZONA BOARD OF REGENTS ON BEHALF OF THE UNIVERSITY OF …, priority 2016, dated 2020).

Each structure is given as a SMILES string.

Regarding `CCN(CC)S(=O)(=O)NCCN1CCc2ccccc21` [UANOX001, N—(N,N-diethylaminosulfonyl)-2-(indolin-1-yl)ethan-1-amine], the remaining activity at 1 µM worked out at 99.5%, the remaining activity at 5 µM came to 106% and the remaining activity at 10 µM amounted to 103%.

Regarding `CCN(CC)C(=O)NCCN1CCc2ccccc21` [UANOX002, 1,1-diethyl-3-(2-(indolin-1-yl)ethyl)urea], the remaining activity at 1 µM was found to be 98.6%, the remaining activity at 5 µM was determined as 106% and the remaining activity at 10 µM amounted to 101%.

For the molecule `CN(C)S(=O)(=O)NCCN1CCc2ccccc21` [UANOX003, N—(N,N-dimethylaminosulfonyl)-2-(indolin-1-yl)ethan-1-amine], the remaining activity at 1 µM was found to be 101%, the remaining activity at 5 µM amounted to 103% and the remaining activity at 10 µM came out at 103%.

As to `O=S(=O)(NCCN1CCc2ccccc21)N1CCCC1` [UANOX004, N-(2-(indolin-1-yl)ethyl)pyrrolidine-1-sulfonamide], the remaining activity at 1 µM is 99.4%, the remaining activity at 5 µM stood at 101% and the remaining activity at 10 µM amounted to 88.2%.

On to `CCN(CC)C(=O)NCC(C)N1CCc2ccccc21` (stereo not shown) [UANOX006, 1,1-diethyl-3-(2-(indolin-1-yl)propyl)urea], for which the remaining activity at 1 µM is 82.2%, the remaining activity at 5 µM turned out to be 82.5% and the remaining activity at 10 µM worked out at 74.1%.

For the molecule `CC(CNS(=O)(=O)N(C)C)N1CCc2ccccc21` (stereo not shown) [UANOX007, N—(N,N-dimethylaminosulfonyl)-2-(indolin-1-yl)propane-1-amine], the remaining activity at 1 µM was determined as 103%, the remaining activity at 5 µM was determined as 91.6% and the remaining activity at 10 µM was found to be 90.8%.

For `CC(CNS(=O)(=O)N1CCCC1)N1CCc2ccccc21` (stereo not shown) [UANOX008, N-(2-(indolin-1-yl)propyl)pyrrolidine-1-sulfonamide], the remaining activity at 1 µM came to 98.4%, the remaining activity at 5 µM is 77.9% and the remaining activity at 10 µM was determined as 67.8%.

`CN1CCN(C(=O)NCCN2CCc3ccccc32)CC1` [UANOX011, N-(2-(indolin-1-yl)ethyl)-4-methylpiperazine-1-carboxamide]: the remaining activity at 1 µM is 98%, the remaining activity at 5 µM stood at 97.9% and the remaining activity at 10 µM worked out at 95.6%.

For `O=S(=O)(NCCN1CCc2ccccc21)N1CCOCC1` [UANOX012, N-(2-(indolin-1-yl)ethyl)morpholine-4-sulfonamide], the remaining activity at 1 µM worked out at 96%, the remaining activity at 5 µM is 95% and the remaining activity at 10 µM is 85.7%.

On to `O=S(=O)(NCCN1CCc2ccccc21)N1CCCCC1` [UANOX013, N-(2-(indolin-1-yl)ethyl)piperidine-1-sulfonamide], for which the remaining activity at 1 µM came to 101%, the remaining activity at 5 µM is 92.1% and the remaining activity at 10 µM came out at 88.1%.

On to `c1ccc2c(c1)CCN2CCN1CCCCC1` [UANOX018, 1-(2-(piperidin-1-yl)ethyl)indoline], for which the remaining activity at 1 µM is 110%, the remaining activity at 5 µM was 103% and the remaining activity at 10 µM came out at 100%.

Consider `CC(CNC(=O)N1CCN(C)CC1)N1CCc2ccccc21` (stereo not shown) [UANOX019, N-(2-(indolin-1-yl)propyl)-4-methylpiperazine-1-carboxamide], for which the remaining activity at 1 µM was 91.5%, the remaining activity at 5 µM was determined as 81.4% and the remaining activity at 10 µM is 74.1%.

On to `CC(CNC(=O)N1CCCC1)N1CCc2ccccc21` (stereo not shown) [UANOX020, N-(2-(indolin-1-yl)propyl)pyrrolidine-1-carboxamide], for which the remaining activity at 1 µM came out at 73.7%, the remaining activity at 5 µM stood at 87% and the remaining activity at 10 µM was determined as 86.6%.

On to `O=C(NCCN1CCc2ccccc21)N1CCCC1` [UANOX021, N-(2-(indolin-1-yl)ethyl)pyrrolidine-1-carboxamide], for which the remaining activity at 1 µM turned out to be 74.2%, the remaining activity at 5 µM was found to be 87.6% and the remaining activity at 10 µM was determined as 79.1%.

Consider `O=C(CCN1CCN(c2ncccn2)CC1)N1CCc2ccccc21` [UANOX022, 1-(indolin-1-yl)-3-(4-(pyrimidin-2-yl)piperazin-1-yl)propan-1-one], for which the remaining activity at 1 µM came to 111%, the remaining activity at 5 µM came out at 107% and the remaining activity at 10 µM is 110%.

Take `O=C(CNC1CCCCCC1)N1CCc2ccccc21` [UANOX023, 2-(cycloheptylamino)-1-(indolin-1-yl)ethan-1-one]: the remaining activity at 1 µM came out at 98.4%, the remaining activity at 5 µM was 108% and the remaining activity at 10 µM was 100%.

On to `CCN(CC)S(=O)(=O)N1CCN(CC(=O)N2CCc3ccccc32)CC1` [UANOX025, N,N-diethyl-4-(2-(indolin-1-yl)-2-oxoethyl)piperazine-1-sulfonamide], for which the remaining activity at 1 µM came out at 107%, the remaining activity at 5 µM is 113% and the remaining activity at 10 µM worked out at 112%.

For the molecule `O=C(CN1CCN(S(=O)(=O)N2CCOCC2)CC1)N1CCc2ccccc21` [UANOX026, 1-(indolin-1-yl)-2-(4-(morpholinosulfonyl)piperazin-1-yl)ethan-1-one], the remaining activity at 1 µM came out at 90.6%, the remaining activity at 5 µM came to 106% and the remaining activity at 10 µM was 101%.

For `O=C(CN1CCN(S(=O)(=O)N2CCCCC2)CC1)N1CCc2ccccc21` [UANOX027, 1-(indolin-1-yl)-2-(4-(piperidin-1-ylsulfonyl)piperazin-1-yl)ethan-1-one], the remaining activity at 1 µM amounted to 113%, the remaining activity at 5 µM is 113% and the remaining activity at 10 µM was 112%.

On to `CN(C)S(=O)(=O)N1CCN(CC(=O)N2CCc3ccccc32)CC1` [UANOX028, 4-(2-(indolin-1-yl)-2-oxoethyl)-N,N-dimethylpiperazine-1-sulfonamide], for which the remaining activity at 1 µM turned out to be 108%, the remaining activity at 5 µM was 112% and the remaining activity at 10 µM came to 111%.

Regarding `CCN(CC)S(=O)(=O)N1CCN(CCC(=O)N2CCc3ccccc32)CC1` [UANOX029, N,N-diethyl-4-(3-(indolin-1-yl)-3-oxopropyl)piperazine-1-sulfonamide], the remaining activity at 1 µM was determined as 112%, the remaining activity at 5 µM was 112% and the remaining activity at 10 µM came out at 110%.

As to `O=C(CCN1CCN(S(=O)(=O)N2CCOCC2)CC1)N1CCc2ccccc21` [UANOX030], the remaining activity at 1 µM came out at 108%, the remaining activity at 5 µM turned out to be 108% and the remaining activity at 10 µM was 104%.

Turning to `O=C(CCN1CCN(S(=O)(=O)N2CCCCC2)CC1)N1CCc2ccccc21` [UANOX031, 1-(indolin-1-yl)-3-(4-(piperidin-1-ylsulfonyl)piperazin-1-yl)propan-1-one], the remaining activity at 1 µM was determined as 111%, the remaining activity at 5 µM was 111% and the remaining activity at 10 µM was determined as 99.7%.

Take `CN(C)S(=O)(=O)N1CCN(CCC(=O)N2CCc3ccccc32)CC1` [UANOX032, 4-(3-(indolin-1-yl)-3-oxopropyl)-N,N-dimethylpiperazine-1-sulfonamide]: the remaining activity at 1 µM is 112%, the remaining activity at 5 µM was determined as 109% and the remaining activity at 10 µM turned out to be 105%.

As to `CC(CNC(=O)c1csc(-c2ccncc2)n1)N1CCc2ccccc21` (stereo not shown) [UANOX033, N-(2-(indolin-1-yl)propyl)-2-(pyridin-4-yl)thiazole-4-carboxamide], the remaining activity at 1 µM came out at 100%, the remaining activity at 5 µM is 91.2% and the remaining activity at 10 µM was found to be 86.7%.

Regarding `COc1ccc(S(=O)(=O)NCC(C)N2CCc3ccccc32)cc1` (stereo not shown) [UANOX034, N-(2-(indolin-1-yl)propyl)-4-methoxybenzenesulfonamide], the remaining activity at 1 µM came to 95.9%, the remaining activity at 5 µM worked out at 80.3% and the remaining activity at 10 µM stood at 70.6%. Moreover, under “varying concentrations, Amplex Red, FIG. 1A”, the “H2O2 generation by HEK/Nox4 cells” value is “dose-dependent decrease”.
